From patent US10966426B2, “Herbicidal compositions comprising phenylpyrimidines” (BASF SE, priority 2016, dated 2021)

Experiments:
Type in all cases: in vivo
Setaria viridis [1] = assay: greenhouse post-emergence treatment, SETVI; conditions: Setaria viridis, 504 h, SETVI, solo pyroxasulfone (WG 85%) 15 gai/ha, 21 DAT
Method in brief: (§1)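 Seeds sown per species in loamy sand substrate (about 3.0% humus); some raised separately and transplanted shortly before treatment. Treatments applied in water post-emergence, plants held at 10-25° C. or 20-35° C. by species, then scored after 2 to 4 weeks, where 100 means total kill and 0 no damage.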

Matricaria chamomilla = assay: greenhouse post-emergence treatment, MATCH; conditions: Matricaria chamomilla, 504 h, MATCH, 21 DAT
Method in brief: (§2)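 Each species was grown separately and treated once it reached 3 to 15 cm, using actives suspended or emulsified in water. Plants were kept at 10-25° C. or 20-35° C., depending on species. Damage is a 0–100 rating taken during 2 to 4 weeks.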

Digitaria sanguinalis [2] = assay: greenhouse post-emergence treatment, DIGSA; conditions: Digitaria sanguinalis, 504 h, DIGSA, 21 DAT
Method in brief: as §1

Polygonum convolvulus = assay: greenhouse post-emergence treatment, POLCO; conditions: Fallopia convolvulus, 504 h, POLCO, 21 DAT
Method in brief: as §2

Alopecurus myosuroides = assay: greenhouse post-emergence treatment, ALOMY; conditions: Alopecurus myosuroides, 504 h, 21 DAT, ALOMY
Method in brief: as §1

Brachiaria decumbens [3] = assay: greenhouse post-emergence treatment, BRADC; conditions: Urochloa decumbens, 504 h, 21 DAT, BRADC
Method in brief: (§3)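 Scale 0–100 damage rating (100 = complete destruction of above-ground parts, 0 = normal growth), read 2 to 4 weeks after post-emergence application of aqueous spray liquor to plants 3–15 cm tall.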

Ambrosia elatior [4] = assay: greenhouse post-emergence treatment, AMBEL; conditions: Ambrosia artemisiifolia, 504 h, 21 DAT, AMBEL
Method: (§4) The culture containers used were plastic pots containing loamy sand with approximately 3.0% of humus as substrate. The seeds of the test plants were sown separately for each species.
(§5) For the post-emergence treatment, the test plants were grown to a plant height of from 3 to 15 cm, depending on the plant habit, and only then treated with the active compounds which had been suspended or emulsified in water. To this end, the test plants were either sown directly, and grown in the same containers, or they were first grown separately as seedlings and transplanted into the test containers a few days prior to treatment.
(§6) Depending on the species, the plants were kept at 10-25° C. and 20-35° C., respectively.
(§7) The test period extended over 2 to 4 weeks. During this time, the plants were tended and their response to the individual treatments was evaluated.
(§8) Evaluation was carried out using a scale from 0 to 100. 100 means no emergence of the plants, or complete destruction of at least the above-ground parts, and 0 means no damage or normal course of growth. A good herbicidal activity is given at values of at least 70, and very good herbicidal activity is given at values of at least 85.
(§9) The respective stated components A and B, and if appropriate, C were formulated as a 10% by weight strength emulsion concentrate and, with addition of the amount of solvent system, introduced into the spray liquor used for applying the active compound. In the examples, the solvent used was water.
(§10) In the examples below, using the method of S. R. Colby (1967) “Calculating synergistic and antagonistic responses of herbicide combinations”, Weeds 15, p. 22ff., the value E, which is expected if the activity of the individual active compounds is only additive, was calculated. E=X+Y−(X·Y/100) where X=effect in percent using herbicide A at an application rate a; • Y=effect in percent using herbicide B at application rate b; • E=expected effect (in %) of herbicide A+herbicide B at application rates a+b.

Lolium multiflorum [5] = assay: greenhouse post-emergence treatment, LOLMU; conditions: Lolium multiflorum, 504 h, 21 DAT, LOLMU
Method in brief: as §1

Avena fatua [6] = assay: greenhouse post-emergence treatment, AVEFA; conditions: Avena fatua, 504 h, 21 DAT, AVEFA
Method in brief: as §1

Bromus sterilis = assay: greenhouse post-emergence treatment, BROST; conditions: Bromus sterilis, 504 h, 21 DAT, BROST
Method in brief: as §1

Stellaria media = assay: greenhouse post-emergence treatment, STEME; conditions: Stellaria media, 504 h, pyroxasulfone solo 30 gai/ha, 21 DAT, STEME
Method in brief: as §3

Galium aparine [7] = assay: greenhouse post-emergence treatment, GALAP; conditions: Galium aparine, 504 h, GALAP, 21 DAT
Method in brief: as §2

Papaver rhoeas = assay: greenhouse post-emergence treatment, PAPRH; conditions: Papaver rhoeas, 504 h, PAPRH, 21 DAT
Method in brief: as §2

Poa annua = assay: greenhouse post-emergence treatment, POAAN; conditions: Poa annua, 504 h, pyroxasulfone solo 15 gai/ha, 21 DAT, POAAN
Method in brief: as §3

Echinocloa crus-galli = assay: greenhouse post-emergence treatment, ECHCG; conditions: Echinochloa crus-galli, 504 h, pyroxasulfone solo 60 gai/ha, 21 DAT, ECHCG, read-out: % activity
Method: as §4, §5, §6, §7, §8, §9, §10

Setaria viridis [8] = assay: greenhouse pre-emergence treatment, SETVI; conditions: 4.5 gai/ha (SC 500 g/l), 20 DAT, SETVI, Table X2
Excerpt: as §4
(§11) For the pre-emergence treatment, the active compounds, suspended or emulsified in water, were applied directly after sowing by means of finely distributing nozzles. The containers were irrigated gently to promote germination and growth and subsequently covered with transparent plastic hoods until the plants had rooted. This cover caused uniform germination of the test plants unless this was adversely affected by the active compounds.
as §6, §7, §8, §9, §10

Galium aparine [9] = assay: greenhouse pre-emergence treatment, GALAP; conditions: 20 DAT, GALAP; for % activity, solo application: Table X2
Excerpt: as §4, §11, §6, §7, §8, §9, §10

Helianthus annuus = assay: greenhouse pre-emergence treatment, HELAN; conditions: 20 DAT, HELAN
Excerpt: as §4, §11, §6, §7, §8, §9, §10

Brachiaria decumbens [10] = assay: greenhouse pre-emergence treatment, BRADC; conditions: 20 DAT, BRADC
Excerpt: as §4, §11, §6, §7, §8, §9, §10

Lolium multiflorum [11] = assay: greenhouse pre-emergence treatment, LOLMU; conditions: LOLMU, trifludimoxazin solo 36 gai/ha, 20 DAT
Excerpt: as §4, §11, §6, §7, §8, §9, §10

Avena fatua [12] = assay: greenhouse pre-emergence treatment, AVEFA; conditions: AVEFA, trifludimoxazin solo 36 gai/ha, 20 DAT
Excerpt: as §4, §11, §6, §7, §8, §9, §10

Digitaria sanguinalis [13] = assay: greenhouse pre-emergence treatment, DIGSA; conditions: 4.5 gai/ha (SC 500 g/l), 20 DAT, DIGSA, Table X2
Excerpt: as §4, §11, §6, §7, §8, §9, §10

Ambrosia elatior [14] = assay: greenhouse pre-emergence treatment, AMBEL; conditions: 20 DAT, AMBEL, Table X2
Excerpt: as §4, §11, §6, §7, §8, §9, §10

[15] = solo pyroxasulfone (WG 85%) 15 gai/ha
[16] = solo pyroxasulfone (WG 85%) 7.5 gai/ha
[17] = solo pyroxasulfone (WG 85%) 30 gai/ha
[18] = solo pyroxasulfone (WG 85%) 60 gai/ha

Cn1nc(C(F)(F)F)c(CS(=O)(=O)C2=NOC(C)(C)C2)c1OC(F)F [pyroxasulfone]
80%: inhibition at 60 g/ha (Echinocloa crus-galli)
65%: inhibition at 30 g/ha (Alopecurus myosuroides; pyroxasulfone solo 30 gai/ha) | inhibition at 15 g/ha (Lolium multiflorum [5]; pyroxasulfone solo 15 gai/ha)
20%: inhibition at 30 g/ha (Ambrosia elatior [4]; pyroxasulfone solo 30 gai/ha) | inhibition at […] (Bromus sterilis; pyroxasulfone solo 7.5 gai/ha)
40%: pest or weed control at 15 g/ha (Setaria viridis [1]) | inhibition at […] (Lolium multiflorum [5]; pyroxasulfone solo 7.5 gai/ha) | inhibition at 15 g/ha (Bromus sterilis; pyroxasulfone solo 15 gai/ha) | inhibition at […] (Galium aparine [7]; pyroxasulfone solo 7.5 gai/ha)
35%: inhibition at […] (Alopecurus myosuroides; pyroxasulfone solo 7.5 gai/ha)
70%: inhibition at 30 g/ha (Lolium multiflorum [5]; pyroxasulfone solo 30 gai/ha) | pest or weed control at 15 g/ha (Galium aparine [7]; [15]) | inhibition at 15 g/ha (Poa annua)
55%: inhibition at 30 g/ha (Brachiaria decumbens [3]; pyroxasulfone solo 30 gai/ha, read-out: % activity)
30%: pest or weed control at […] (Polygonum convolvulus; [16]) | pest or weed control at 15 g/ha (Polygonum convolvulus; [15]) | pest or weed control at 30 g/ha (Polygonum convolvulus; [17]) | pest or weed control at 60 g/ha (Polygonum convolvulus; [18]) | inhibition at […] (Polygonum convolvulus; pyroxasulfone solo 7.5 gai/ha) | inhibition at 15 g/ha (Polygonum convolvulus; pyroxasulfone solo 15 gai/ha) | inhibition at 30 g/ha (Polygonum convolvulus; pyroxasulfone solo 30 gai/ha) | inhibition at 60 g/ha (Polygonum convolvulus; pyroxasulfone solo 60 gai/ha) | inhibition at 15 g/ha (Avena fatua [6]; pyroxasulfone solo 15 gai/ha) | pest or weed control at 30 g/ha (Papaver rhoeas; [17])
0%: pest or weed control at 15 g/ha (Matricaria chamomilla; [15]) | inhibition at 15 g/ha (Matricaria chamomilla; pyroxasulfone solo 15 gai/ha) | pest or weed control at […] (Digitaria sanguinalis [2]; [16]) | pest or weed control at 15 g/ha (Digitaria sanguinalis [2]; [15]) | inhibition at […] (Brachiaria decumbens [3]; pyroxasulfone solo 7.5 gai/ha) | inhibition at 30 g/ha (Stellaria media) | pest or weed control at […] (Papaver rhoeas; [16]) | pest or weed control at 15 g/ha (Papaver rhoeas; [15]) | inhibition at 15 g/ha (Papaver rhoeas; pyroxasulfone solo 15 gai/ha)
75%: inhibition at 60 g/ha (Brachiaria decumbens [3]; pyroxasulfone solo 60 gai/ha, read-out: % activity)
60%: inhibition at 60 g/ha (Ambrosia elatior [4]; pyroxasulfone solo 60 gai/ha) | pest or weed control at 60 g/ha (Papaver rhoeas; [18]) | inhibition at 60 g/ha (Papaver rhoeas; pyroxasulfone solo 60 gai/ha)
25%: inhibition at […] (Avena fatua [6]; pyroxasulfone solo 7.5 gai/ha)

C#CCN1C(=O)C(F)(F)Oc2cc(F)c(-n3c(=O)n(C)c(=S)n(C)c3=O)cc21 [trifludimoxazin]
30%: % activity (Helianthus annuus; trifludimoxazin solo 36 gai/ha)
45%: % activity, solo application (Brachiaria decumbens [10]; 9 gai/ha (SC 500 g/l), Table X2)
75%: % activity, solo application (Setaria viridis [8]) | % activity (Lolium multiflorum [11])
0%: % activity, solo application (Galium aparine [9]; 4.5 gai/ha (SC 500 g/l)) | % activity, solo application (Galium aparine [9]; 9 gai/ha (SC 500 g/l)) | % activity, solo application (Galium aparine [9]; 18 gai/ha (SC 500 g/l)) | % activity (Galium aparine [9]; trifludimoxazin solo 4.5 gai/ha) | % activity (Galium aparine [9]; trifludimoxazin solo 9 gai/ha) | % activity (Galium aparine [9]; trifludimoxazin solo 18 gai/ha) | % activity, solo application (Helianthus annuus; 18 gai/ha (SC 500 g/l), Table X2) | % activity (Helianthus annuus; trifludimoxazin solo 18 gai/ha) | % activity, solo application (Ambrosia elatior [14]; 4.5 gai/ha (SC 500 g/l))
40%: % activity, solo application (Galium aparine [9]; 36 gai/ha (SC 500 g/l)) | % activity (Galium aparine [9]; trifludimoxazin solo 36 gai/ha)
80%: % activity (Brachiaria decumbens [10]; trifludimoxazin solo 36 gai/ha)
50%: % activity (Brachiaria decumbens [10]; trifludimoxazin solo 18 gai/ha) | % activity (Avena fatua [12]) | % activity, solo application (Digitaria sanguinalis [13]) | % activity, solo application (Ambrosia elatior [14]; 9 gai/ha (SC 500 g/l))
